From PubChem BioAssay AID505 (SGCOxCompounds, 2006)
“And” between values parts separate entries of the source, which are not always exact repeats. Equal entries are not always repeated.

Biological target: Serine/threonine-protein kinase pim-2 (Homo sapiens) (UniProt Q9P1W9)
Assay: compound-induced PIM2 thermal stabilization – biophysical, human, melting temperature shift (AID 505)
Settings: Recombinant PIM2 thermal shift, Tm change, at 10 µM, buffer 10 mM HEPES, pH 7.5, with 50 µM L-Arg/L-Glu (1:1), hits give high values

Chain of Serine/threonine-protein kinase pim-2 (Homo sapiens) (Q9P1W9 whole entry, looked up): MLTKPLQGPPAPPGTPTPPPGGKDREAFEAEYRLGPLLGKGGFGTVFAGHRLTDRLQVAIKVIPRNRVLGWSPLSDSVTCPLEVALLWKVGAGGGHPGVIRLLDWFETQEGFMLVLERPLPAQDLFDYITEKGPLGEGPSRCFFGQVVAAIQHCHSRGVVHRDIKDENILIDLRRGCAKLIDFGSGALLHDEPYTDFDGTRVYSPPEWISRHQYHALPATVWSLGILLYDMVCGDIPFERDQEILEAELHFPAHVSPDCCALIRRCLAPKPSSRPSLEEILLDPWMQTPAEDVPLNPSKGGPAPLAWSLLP

SMILES | Tm shift (NaCl 150 mM) | Tm shift (NaCl 100 mM)
COC(=O)c1cnc2oc3ccc(O)cc3c2c1-c1ccccc1 | 6.25 Celsius | 
Cc1c(O)cc(O)c2c1OC(c1ccc(O)c(O)c1)C(=O)C2=O (configuration not stated) | 4.1 Celsius | 
N#C/C(=C1\Nc2ccccc2S1)c1ccnc(NCCc2cccnc2)n1 | 7.4 Celsius | 
NCCNc1ncc(C(N)=O)c(Nc2cccc(C(F)(F)F)c2)n1 | 5.8 Celsius | 
O=C1NC(=O)c2c1c1c3ccccc3[nH]c1c1[nH]c3cc(Br)ccc3c21 |  | 6.31 Celsius
CC(O)(O)C1(O)C[C@@H]2O[C@@]1(C)n1c3ccccc3c3c4c(c5c6ccccc6n2c5c31)C(=O)NC4 (some centres not stated) | 3.79 Celsius | 
CC(C)[C@@H](CO)Nc1ccc2ncc(-c3cccc(C(F)(F)F)c3)n2n1 | 4.39 Celsius | 
NCCCn1cc(C2=C(c3c[nH]c4ccccc34)C(=O)NC2=O)c2ccccc21 | 5.63 Celsius | 
O=C1NC(=O)c2c1c1c3ccccc3n3c1c1c2c2ccccc2n1[C@@H]1CCC3O1 |  | 11.1 Celsius
O=c1cc(-c2ccc(O)c(O)c2)oc2cc(O)cc(O)c12 | 4.14 Celsius | 
CCn1cnc2c(Nc3cccc(Cl)c3)nc(N[C@@H]3CCCC[C@@H]3N)nc21 | 5.45 Celsius | 
O=C1Nc2ccccc2/C1=C\c1c(Cl)[nH]c2ccccc12 | 3.4 Celsius | 
O=c1c(-c2ccc(O)cc2)coc2cc(O)ccc12 | 3.3 Celsius | 
COc1c(C=O)c(O)cc2c1C(=O)c1ccccc1C2=O | 3.3 Celsius | 
Clc1cccc(-c2cnc3ccc(NCCc4ccccn4)nn23)c1 |  | 3.46 Celsius
O=C1Nc2ccc(I)cc2/C1=C/c1cc(Br)c(O)c(Br)c1 | 10.2 Celsius | 
CCC(CO)Nc1ccc2ncc(-c3ccc(C(=O)O)cc3)n2n1 (configuration not stated) | 4.94 Celsius | 
CC(=O)c1cccc(-c2cnc3ccc(N[C@H](CO)C(C)C)nn23)c1 | 3.77 Celsius | 
O=c1[nH]c(O)c2c1c1c3ccccc3nc1n1cncc21 | 8 Celsius | 
Fc1ccc(CNc2ccc3ncc(-c4ccco4)n3n2)cc1 |  | 3.36 Celsius

SMILES | Tm shift (NaCl 150 mM) | Tm shift (NaCl 100 mM)
COc1cc(C2Oc3cc(O)cc(O)c3C(=O)C2=O)ccc1O (configuration not stated) | 7.24 Celsius | 
CC1N=C2SC=CN2C(=O)C1CCN1CCC(=C(c2ccccc2)c2ccc(F)cc2)CC1 (configuration not stated) | 4.3 Celsius and 3.8 Celsius | 
CC(=O)c1cccc(-c2cnc3ccc(NCC4CC4)nn23)c1 |  | 4.29 Celsius
O=C1c2ccccc2-c2n[nH]c3cccc1c23 | 4.6 Celsius | 
O=C1C(=O)C(c2ccc(O)cc2)Oc2cc(O)cc(O)c21 (configuration not stated) | 5.62 Celsius | 
O=C1NCc2c1c1c3ccccc3[nH]c1c1[nH]c3ccccc3c21 | 5.2 Celsius | 
O=c1c(O)c(-c2cc(O)c(O)c(O)c2)oc2cc(O)cc(O)c12 |  | 4.74 Celsius
O=c1cc(-c2ccc(O)cc2)oc2cc(O)cc(O)c12 | 3.8 Celsius | 
O=c1c(O)c(-c2ccc(O)c(O)c2)oc2cc(O)ccc12 | 6.11 Celsius | 
Cn1cc(C2=C(c3c4n(c5ccccc35)CCC(CN)C4)C(=O)NC2=O)c2ccccc21 (configuration not stated) | 3.6 Celsius | 
CCC(CO)Nc1ccc2ncc(-c3ccc(F)c(Cl)c3)n2n1 (configuration not stated) | 5.54 Celsius | 
CCC(CO)Nc1ccc2ncc(-c3ccc(O)cc3)n2n1 (configuration not stated) | 4.74 Celsius | 
FC(F)(F)Oc1cccc(-c2cnc3ccc(NC4CCOCC4)nn23)c1 | 5.78 Celsius | 
O=C1C(=O)C(c2cc(O)c(O)c(O)c2)Oc2cc(O)cc(O)c21 (configuration not stated) |  | 4.13 Celsius
O=C1C(=O)C(c2cccc(O)c2)Oc2ccccc21 (configuration not stated) | 4.5 Celsius | 
Fc1cccc(-c2cnc3ccc(NC4CCOCC4)nn23)c1 | 3.17 Celsius | 
Clc1cccc(-c2cnc3ccc(NC4CCOCC4)nn23)c1 |  | 5.64 Celsius
Brc1c(Br)c(Br)c2n[nH]nc2c1Br | 4.25 Celsius | 
O=C1NC(=O)C(c2c[nH]c3ccccc23)=C1c1c[nH]c2ccccc12 | 4.02 Celsius | 
O=c1oc2cc(O)ccc2c2oc3cc(O)ccc3c12 | 4.4 Celsius | 

SMILES | Tm shift (NaCl 150 mM) | Tm shift (NaCl 100 mM)
O=c1c(-c2ccc(O)cc2)coc2cc(O)cc(O)c12 | 3.3 Celsius | 
CCN1/C(=C/C(C)=O)Sc2ccc(OC)cc21 | 3.1 Celsius | 
CC(C)(C)c1nc2c3cc[nH]c(=O)c3c3cc(F)ccc3c2[nH]1 | 5.1 Celsius | 
Clc1cccc(Nc2ccn3ncc(-c4ccsc4)c3n2)c1 |  | 3.45 Celsius
O=c1c(O)c(-c2ccc(O)cc2)oc2cc(O)cc(O)c12 | 5.81 Celsius | 
CCC(CO)Nc1ccc2ncc(-c3cccc(C(C)=O)c3)n2n1 (configuration not stated) | 4.59 Celsius | 
Cc1cc(O)c2c(c1)C(=O)c1cc(O)cc(O)c1C2=O | 4.2 Celsius | 
N=C(N)SCCCn1cc(C2=C(c3c[nH]c4ccccc34)C(=O)NC2=O)c2ccccc21 | 5.64 Celsius | 
Oc1cc(O)c2c(c1)O[C@H](c1ccc(O)c(O)c1)[C@@H](O)C2 | 3.2 Celsius | 
COc1cc(/C=C/C(=O)CC(=O)/C=C/c2ccc(O)c(OC)c2)ccc1O | 4.3 Celsius | 
O=c1c(O)c(-c2ccc(O)c(O)c2)oc2cc(O)cc(O)c12 | 8.58 Celsius and 7.16 Celsius | 
Cc1c2ccncc2c(C)c2c1[nH]c1ccccc12 | 4.8 Celsius | 
NC1=N/C(=C2/CCNC(=O)c3[nH]c(Br)cc32)C(=O)N1 | 3.7 Celsius | 3.73 Celsius
CCC(CO)Nc1ccc2ncc(-c3cccc(OC(F)(F)F)c3)n2n1 (configuration not stated) | 5.92 Celsius | 
O=C1C(=O)C(c2ccc(O)cc2O)Oc2cc(O)cc(O)c21 (configuration not stated) | 6.2 Celsius | 
O=Nc1c(-c2c(O)[nH]c3ccc(S(O)(O)O)cc23)[nH]c2ccccc12 | 4.1 Celsius | 
CC(C)[C@@H](CO)Nc1ccc2ncc(-c3cccc(OC(F)(F)F)c3)n2n1 | 4.06 Celsius | 
O=C1C(=O)C(c2ccccc2)Oc2ccc(O)cc21 (configuration not stated) | 3.1 Celsius | 
CC(C)[C@@H](CO)Nc1ccc2ncc(-c3cccc(Cl)c3)n2n1 | 4.69 Celsius | 
CN(C)CCCn1cc(C2=C(c3c[nH]c4ccccc34)C(=O)NC2=O)c2ccccc21 | 6.1 Celsius | 4.21 Celsius
